Assays:
GSPT1 = GSPT1 (Homo sapiens, UniProt P15170+Q96SW2); assay: HiBiT degradation assay, GSPT1, Procedure A; assay type: cell-based; parameters: HiBit-GSPT1 KI HEK293(LgBit) Cells; host or cells: HEK293(LgBit) knock-in cells; details: six hours incubation
Procedure, shortened: (§1)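 Cells in DMEM + 10% FBS were treated with compound in a ten-point dose response from 10 μM to 0.005 μM (0.1% DMSO) for six hours at 37° C. Lysis with Nano-Glo HiBiT detection reagent followed, with luminescence read. DC50 and Ymin came from a 4-parameter fit.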

CK1α = target: T1, CK1α (Homo sapiens, UniProt P48729+Q96SW2); assay: HiBiT degradation assay, CK1α, Procedure A; assay type: cell-based; details: six hours incubation
T1 construct: CSNK1A1-HiBit KI HEK293(LgBit) Cells; host or cells: HEK293(LgBit) knock-in cells
Procedure, shortened: as §1

T1 sequence (P48729 whole entry): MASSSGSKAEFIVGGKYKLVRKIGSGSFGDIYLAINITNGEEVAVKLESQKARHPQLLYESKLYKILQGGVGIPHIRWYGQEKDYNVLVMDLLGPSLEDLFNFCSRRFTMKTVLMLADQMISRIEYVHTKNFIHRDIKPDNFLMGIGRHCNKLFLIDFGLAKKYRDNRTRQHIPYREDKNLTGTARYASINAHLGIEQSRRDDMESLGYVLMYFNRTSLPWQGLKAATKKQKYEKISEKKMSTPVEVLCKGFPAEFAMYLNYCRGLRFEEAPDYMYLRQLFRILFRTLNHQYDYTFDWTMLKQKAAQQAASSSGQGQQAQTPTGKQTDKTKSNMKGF
T1 sequence (Q96SW2 whole entry): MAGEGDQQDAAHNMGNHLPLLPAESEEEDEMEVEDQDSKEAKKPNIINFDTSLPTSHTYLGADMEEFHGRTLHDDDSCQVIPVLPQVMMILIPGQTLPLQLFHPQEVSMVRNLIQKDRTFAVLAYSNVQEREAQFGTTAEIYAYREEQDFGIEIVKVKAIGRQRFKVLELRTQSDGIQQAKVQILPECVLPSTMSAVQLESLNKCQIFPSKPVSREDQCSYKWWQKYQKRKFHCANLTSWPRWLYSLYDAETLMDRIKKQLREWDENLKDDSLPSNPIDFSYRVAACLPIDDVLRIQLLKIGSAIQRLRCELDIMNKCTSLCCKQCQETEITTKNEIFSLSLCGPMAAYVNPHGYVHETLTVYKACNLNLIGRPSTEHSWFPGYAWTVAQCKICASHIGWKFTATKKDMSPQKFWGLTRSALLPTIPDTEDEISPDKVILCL
T1 sequence (Q16531 whole entry partner): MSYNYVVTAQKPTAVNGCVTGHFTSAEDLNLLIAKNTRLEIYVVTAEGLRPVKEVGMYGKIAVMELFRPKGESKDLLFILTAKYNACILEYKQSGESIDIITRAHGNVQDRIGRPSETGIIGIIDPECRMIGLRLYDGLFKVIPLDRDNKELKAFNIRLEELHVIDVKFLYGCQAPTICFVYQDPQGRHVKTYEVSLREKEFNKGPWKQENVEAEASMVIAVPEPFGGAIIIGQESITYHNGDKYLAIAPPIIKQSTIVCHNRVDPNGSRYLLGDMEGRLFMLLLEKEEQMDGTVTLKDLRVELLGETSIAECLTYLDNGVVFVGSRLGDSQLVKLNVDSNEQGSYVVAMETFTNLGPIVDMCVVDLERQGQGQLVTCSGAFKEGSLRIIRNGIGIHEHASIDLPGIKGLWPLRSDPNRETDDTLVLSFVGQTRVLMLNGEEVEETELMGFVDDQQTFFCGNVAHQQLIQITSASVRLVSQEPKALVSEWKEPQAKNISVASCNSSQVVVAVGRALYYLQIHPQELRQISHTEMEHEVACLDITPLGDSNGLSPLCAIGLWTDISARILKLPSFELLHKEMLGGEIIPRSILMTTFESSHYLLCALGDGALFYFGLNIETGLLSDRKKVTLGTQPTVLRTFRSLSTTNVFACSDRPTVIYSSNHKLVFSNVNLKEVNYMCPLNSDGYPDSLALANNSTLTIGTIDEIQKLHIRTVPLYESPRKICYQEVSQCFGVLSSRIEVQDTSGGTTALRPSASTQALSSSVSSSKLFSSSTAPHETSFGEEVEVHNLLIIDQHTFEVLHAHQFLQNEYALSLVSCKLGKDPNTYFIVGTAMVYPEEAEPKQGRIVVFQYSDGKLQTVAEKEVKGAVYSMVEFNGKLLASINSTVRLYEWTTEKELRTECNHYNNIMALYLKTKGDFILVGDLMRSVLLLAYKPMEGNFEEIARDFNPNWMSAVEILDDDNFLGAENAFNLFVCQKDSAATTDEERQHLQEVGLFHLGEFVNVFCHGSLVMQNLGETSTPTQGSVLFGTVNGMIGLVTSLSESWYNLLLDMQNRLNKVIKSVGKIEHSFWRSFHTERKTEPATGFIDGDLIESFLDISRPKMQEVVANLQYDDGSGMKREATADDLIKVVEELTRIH
Sequence of GSPT1 (P15170 whole entry): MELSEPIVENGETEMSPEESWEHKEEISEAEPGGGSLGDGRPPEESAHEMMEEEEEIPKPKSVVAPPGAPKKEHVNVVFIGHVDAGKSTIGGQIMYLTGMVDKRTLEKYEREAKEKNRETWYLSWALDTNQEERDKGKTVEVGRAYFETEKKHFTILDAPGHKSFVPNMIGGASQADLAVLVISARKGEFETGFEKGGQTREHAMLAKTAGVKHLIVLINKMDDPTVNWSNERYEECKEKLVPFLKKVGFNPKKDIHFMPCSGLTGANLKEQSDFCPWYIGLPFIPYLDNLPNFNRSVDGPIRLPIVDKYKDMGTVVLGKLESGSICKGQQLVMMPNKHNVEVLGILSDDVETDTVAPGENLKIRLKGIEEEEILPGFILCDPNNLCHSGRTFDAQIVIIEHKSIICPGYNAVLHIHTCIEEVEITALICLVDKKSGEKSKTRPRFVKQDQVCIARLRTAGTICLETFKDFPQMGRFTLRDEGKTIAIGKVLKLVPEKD
Sequence of GSPT1 (Q96SW2 whole entry): as the sequence (Q96SW2 whole entry) above
Sequence of GSPT1 (Q16531 whole entry partner): as the sequence (Q16531 whole entry partner) above

| Compound | DC50 (GSPT1) [nM] | GSPT1 Ymin (GSPT1) | CK1α Ymin (CK1α) | DC50 (CK1α) [nM] |
| --- | --- | --- | --- | --- |
| CN(C)C(=O)c1cccc(-c2c(-c3ccc4c(c3)CN(C3CCC(=O)NC3=O)C4=O)ncn2C)c1 (stereo not shown) [Example 290] | ≥ 25 | F (F = >75-100% remaining) | D (D = >10- 25% remaining) | ≥ 25 |
| Cn1cnc(-c2ccc3c(c2)CN(C2CCC(=O)NC2=O)C3=O)c1-c1cccc(-c2ccccc2)c1 (stereo not shown) [Example 291] | ≥ 25 | F (F = >75-100% remaining) | E (E = >25-75% remaining) | < 25 |
| Cn1cnc(-c2ccc3c(c2)CN(C2CCC(=O)NC2=O)C3=O)c1-c1ccc(F)c(C(F)(F)F)c1 (stereo not shown) [Example 293] | < 25 | F (F = >75-100% remaining) | E (E = >25-75% remaining) | ≥ 25 |
| Cn1cnc(-c2ccc3c(c2)CN(C2CCC(=O)NC2=O)C3=O)c1-c1ccc(-c2ccccc2)cc1 (stereo not shown) [Example 294] | < 25 | E (E = >25-75% remaining) | D (D = >10- 25% remaining) | < 25 |
| Cn1cnc(-c2ccc3c(c2)CN(C2CCC(=O)NC2=O)C3=O)c1-c1cccc(CN2CCCC2)c1 (stereo not shown) [Example 295] | ≥ 25 | F (F = >75-100% remaining) | D (D = >10- 25% remaining) | ≥ 25 |
| Cn1cnc(-c2ccc3c(c2)CN(C2CCC(=O)NC2=O)C3=O)c1-c1cccc(N2CCCCC2)c1 (stereo not shown) [Example 296] | ≥ 25 | F (F = >75-100% remaining) | E (E = >25-75% remaining) | < 25 |
| Cn1cnc(-c2ccc3c(c2)CN(C2CCC(=O)NC2=O)C3=O)c1-c1cccc(N2CCOCC2)c1 (stereo not shown) [Example 297] | ≥ 25 | F (F = >75-100% remaining) | E (E = >25-75% remaining) | < 25 |
| Cn1cnc(-c2ccc3c(c2)CN(C2CCC(=O)NC2=O)C3=O)c1-c1ccc(-c2ccc(O)cc2)cc1 (stereo not shown) [Example 298] | ≥ 25 | F (F = >75-100% remaining) | E (E = >25-75% remaining) | < 25 |
| Cn1cnc(-c2ccc3c(c2)CN(C2CCC(=O)NC2=O)C3=O)c1-c1ccc(-c2ccc(C#N)cc2)cc1 (stereo not shown) [Example 299] | ≥ 25 | F (F = >75-100% remaining) | C (C = 0-10% remaining) | < 25 |
| Cn1cnc(-c2ccc3c(c2)CN(C2CCC(=O)NC2=O)C3=O)c1-c1ccc(C(=O)NC2CCCC2)cc1 (stereo not shown) [Example 300] | ≥ 25 | F (F = >75-100% remaining) | D (D = >10- 25% remaining) | ≥ 25 |
| Cn1cnc(-c2ccc3c(c2)CN(C2CCC(=O)NC2=O)C3=O)c1-c1cccc2c1CCC2 (stereo not shown) [Example 301] | ≥ 25 | F (F = >75-100% remaining) | D (D = >10- 25% remaining) | < 25 |
| Cn1cnc(-c2ccc3c(c2)CN(C2CCC(=O)NC2=O)C3=O)c1-c1cccc(C(=O)NC2CCCCC2)c1 (stereo not shown) [Example 302] | ≥ 25 | F (F = >75-100% remaining) | E (E = >25-75% remaining) | ≥ 25 |
| COc1cccc(COc2cccc(-c3c(-c4ccc5c(c4)CN(C4CCC(=O)NC4=O)C5=O)ncn3C)c2)c1 (stereo not shown) [Example 303] | ≥ 25 | F (F = >75-100% remaining) | E (E = >25-75% remaining) | < 25 |
| Cn1cnc(-c2ccc3c(c2)CN(C2CCC(=O)NC2=O)C3=O)c1-c1ccc(OCc2ccccc2)c(Cl)c1 (stereo not shown) [Example 304] | < 25 | F (F = >75-100% remaining) | D (D = >10- 25% remaining) | < 25 |
| Cn1cnc(-c2ccc3c(c2)CN(C2CCC(=O)NC2=O)C3=O)c1-c1ccc(-c2ccncc2)cc1 (stereo not shown) [Example 305] | < 25 | F (F = >75-100% remaining) | C (C = 0-10% remaining) | < 25 |
| Cn1cnc(-c2ccc3c(c2)CN(C2CCC(=O)NC2=O)C3=O)c1-c1ccc(S(C)(=O)=O)cc1 (stereo not shown) [Example 306] | ≥ 25 | E (E = >25-75% remaining) | E (E = >25-75% remaining) | ≥ 25 |
| Cn1cnc(-c2ccc3c(c2)CN(C2CCC(=O)NC2=O)C3=O)c1-c1ccc(C(=O)NCc2ccccc2)c(Cl)c1 (stereo not shown) [Example 307] | < 25 | F (F = >75-100% remaining) | D (D = >10- 25% remaining) | ≥ 25 |
| Cn1cnc(-c2ccc3c(c2)CN(C2CCC(=O)NC2=O)C3=O)c1-c1ccc(Oc2cccnc2)cc1 (stereo not shown) [Example 308] | ≥ 25 | F (F = >75-100% remaining) | D (D = >10- 25% remaining) | < 25 |
| Cn1cnc(-c2ccc3c(c2)CN(C2CCC(=O)NC2=O)C3=O)c1-c1ccc(CN2CCOCC2)cc1 (stereo not shown) [Example 309] | < 25 | F (F = >75-100% remaining) | D (D = >10- 25% remaining) | < 25 |
